The target of assay [1] is T1, PfHsp70‐xT (Plasmodium falciparum, UniProt K7NTP5). The assay is described as follows: SPR peptide substrate binding kinetics. On the set-up: ka association rate constant: scale not given here. To be noted: mean ± SD; for ka association rate constant / Kd: SPR, PfHsp70‐xT ligand; for koff: read-out: kd dissociation rate constant, SPR, PfHsp70‐xT ligand; for Kd: K D, peptide 1.25-20 nM, 25°C, PBS-Tween. On the procedure:
(§1) Association of PfHsp70‐x/PfHsp70‐xT with synthetic peptides that represent typical Hsp70 substrates26 was investigated using surface plasmon resonance (SPR) analysis as previously described.22, 24 Briefly, PfHsp70‐x and PfHsp70‐xT were immobilized onto respective ProteOn GLC sensor chips as ligands. PfHsp70‐x, PfHsp70‐xT (as ligands) were immobilized at concentrations of 0.5 and 1 μg mL^−1. At these concentrations we achieved 190 response units (RU) for PfHsp70‐x, and 193 RU for PfHsp70‐xT per immobilization surface. The assay was conducted at 25°C. Filter sterilized and degassed PBS‐Tween was used as the running buffer. As analytes, aliquots of peptides, representing typical Hsp70 substrates (NRLLTG, NRNNTG, ALLLMYRR, ANNNMYRR, GFRVVLMYRF, GFRNNNMYRF) were prepared at final concentration of 1.25, 2.50, 5, 10, and 20 nM and were injected at 50 μL min^−1 in each horizontal channel. Association was allowed for 2 minutes, dissociation was monitored for 10 minutes. The assay was repeated in the presence of nucleotides 2 mM ATP/ADP. The final data were determined by substracting the baseline RU (buffer containing ATP/ADP without analyte peptide). The association rate constant, dissociation rate constant and equilibrium constant data were analyzed using ProteOn Manager software version 3.1.0.6. by concatenating the responses of the analyte at variable concentrations.

In assay [2] the target is T2, PfHsp70‐x (Plasmodium falciparum, UniProt K7NTP5). The assay is described as follows: SPR peptide substrate binding kinetics. To be noted: mean ± SD; for ka association rate constant / Kd: SPR, PfHsp70‐x ligand; for koff: read-out: kd dissociation rate constant, SPR, PfHsp70‐x ligand; for Kd: K D, peptide 1.25-20 nM, 25°C, PBS-Tween. On the procedure: as §1
T2 sequence (K7NTP5 entry or part of it): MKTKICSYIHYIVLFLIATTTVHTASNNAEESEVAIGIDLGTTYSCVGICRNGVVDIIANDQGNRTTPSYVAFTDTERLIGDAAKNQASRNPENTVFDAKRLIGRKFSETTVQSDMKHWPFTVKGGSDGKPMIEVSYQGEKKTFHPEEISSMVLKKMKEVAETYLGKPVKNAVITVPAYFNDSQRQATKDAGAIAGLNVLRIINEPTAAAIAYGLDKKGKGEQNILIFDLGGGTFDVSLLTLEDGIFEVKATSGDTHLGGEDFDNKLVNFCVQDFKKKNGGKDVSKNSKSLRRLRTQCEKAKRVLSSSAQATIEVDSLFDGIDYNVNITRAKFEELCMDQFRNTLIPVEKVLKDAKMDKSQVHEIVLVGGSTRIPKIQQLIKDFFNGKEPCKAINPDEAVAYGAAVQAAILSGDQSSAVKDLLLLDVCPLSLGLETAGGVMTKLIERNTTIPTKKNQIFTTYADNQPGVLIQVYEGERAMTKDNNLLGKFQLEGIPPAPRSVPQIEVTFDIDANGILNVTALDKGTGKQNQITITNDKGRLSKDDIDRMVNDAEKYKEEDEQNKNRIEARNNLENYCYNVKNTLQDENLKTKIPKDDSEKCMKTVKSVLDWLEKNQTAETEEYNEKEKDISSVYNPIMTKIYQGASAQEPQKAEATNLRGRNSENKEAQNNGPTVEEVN
The target in assay [3] is T2, PfHsp70‐x. The assay is described as follows: SPR nucleotide (ATP) binding assay. To be noted: SPR steady state, PfHsp70‐x immobilized as ligand, ATP 1.25-20 nM, 25°C, PBS-Tween pH 7.4; mean ± SD of three independent assays; read-out: K D (ATP analyte). The method, then: (§2) The nucleotide binding assay was conducted at 25°C using a BioRad ProteOn XPR36 surface plasmon resonance (SPR) as previously described.22 The assay buffer was constituted of filter sterilized and degassed PBS‐Tween [([…], 1.46 mM KH2PO4, 137 mM NaCl, 3 mM KCl, 0.005% [v/v] Tween 20 and 20 mM EDTA; pH 7.4)]. PfHsp70‐x (1 μg mL^−1) and its truncated version, PfHsp70‐xT (1 μg mL^−1) were immobilized onto respective ProteOn HTE sensor chips as ligands. At these concentrations, we achieved 190 response units (RU) for PfHsp70‐x and 195 RU for PfHsp70‐xT per immobilization surface. Varying concentrations (1.25 nM, 2.50 nM, 5 nM 10 nM and 20 nM) of the analyte (ATP) were injected at a flow rate of 100 μL min^−1 in each horizontal channel and association and dissociation was allowed to occur and monitored for 10 minutes. Steady state equilibrium constant data was processed and analyzed using ProteOn Manager software version 3.1.0.6.

The target of assay [4] is T1, PfHsp70‐xT. Description: SPR nucleotide (ATP) binding assay. The conditions noted are these: SPR steady state, PfHsp70‐xT immobilized as ligand, ATP 1.25-20 nM, 25°C, PBS-Tween pH 7.4; mean ± SD of three independent assays; read-out: K D (ATP analyte). On the procedure:
as §2

The target of assay [5] is T2, PfHsp70‐x. Description: Slot blot assay of direct association with hHop. It counts as binding. The method, then: (§3) Recombinant forms of hHop, control (bovine serum albumin), PfHsp70‐x (positive control) were immobilized onto the nitrocellulose membrane using Bio‐Dot SF apparatus as previously described 22. The proteins were immobilized at final amounts of 2, 4, and 8 μg each respectively per lane. The membrane was blocked with 5% (w/v) fat‐free milk in TBST (50 mM Tris‐HCl pH 7.5, 150 mM NaCl, 0.1% [v/v] Tween 20) and overlaid with either PfHsp70‐x/PfHsp70‐xT (10 μg mL^−1) in the absence and presence of 5 mM ATP/ADP and incubated overnight at 4°C, followed by three washes with TBST for 15 minutes. The nucleotide concentrations were maintained in the subsequent steps of the protocol. Protein was detected by Western blot technique using rabbit raised α‐PfHsp70‐x [1:2000] (Genscript, USA) as primary antibodies and goat raised α‐rabbit IgG secondary HRP‐conjugated antibody [1:4000] (Sigma–Aldrich, USA). Imaging of the protein bands was conducted using the ECL kit as per manufacturer's instructions. The images were captured using ChemiDoc imaging system (Bio‐Rad, USA).

The target in assay [6] is T1, PfHsp70‐xT. The assay is described as follows: Slot blot assay of direct association with hHop. It counts as binding. To be noted: hHop immobilized 2, 4, 8 μg, overlaid with PfHsp70‐xT 10 μg/mL. The method, then:
as §3

For assay [7], the target named is T2, PfHsp70‐x. The assay is described as follows: SPR analysis of association with hHop. It counts as binding. To be noted: 5 mM ATP versus no nucleotide / ADP. On the procedure:
The direct association between PfHsp70‐x and hHop was further explored using SPR analysis. The assay was conducted at 25°C using filter sterilized and degassed PBS‐Tween running buffer [(8 mM Na2HPO4, 1.46 mM KH2PO4, 137 mM NaCl, 3 mM KCl, 0.005% [v/v] Tween 20 and 20 mM EDTA; pH 7.4)] as previously described.22, 24 The recombinant PfHsp70‐x /PfHsp70‐xT (1 μg mL^−1) and BSA (as control) were immobilized onto respective ProteOn GLC sensor chips as ligands. As analyte, the recombinant hHop at varying concentrations (125, 250, 500, 1 000, and 2 000 nM) was passed over the immobilized proteins. The analytes were injected at flow rate of 50 μL min^−1 and association and dissociation occurred in a period of 10 minutes. The assay was then repeated in the presence of 5 mM ADP/ATP. The association rate constant, dissociation rate constant, and equilibrium constant data were processed and analyzed using ProteOn Manager software version 3.1.0.6 involving concatenating the responses of the analyte at variable concentrations.
A general note: In SPR one partner is held on a chip, and binding of the other changes the refractive index at the surface.

Assay [8] deals with T2, PfHsp70‐x. The assay is described as follows: ELISA of direct association with hHop. The assay is classed as binding. The conditions noted are these: Hop analyte 0.137-300 nM. On the procedure:
The direct association of hHop with PfHsp70‐x was further confirmed using an enzyme linked immunosorbent assay (ELISA) as previously described27 with minor modifications. Briefly, recombinant PfHsp70‐x/PfHsp70‐xT proteins and control BSA (5 μg/mL) were added to wells overnight in 50 mM NaHCO3, pH 9.3 at 4°C. The wells were washed at least three times with TBST, between each subsequent step. After blocking with 1% BSA in TBST, recombinant PfHop protein (analyte) was added in serial dilutions (0.137–300 nM) in the presence or absence of nucleotides (5 mM ATP/ADP) for 2 hours at 25°C. Then the wells were incubated with α‐PfHop primary antibody for 1 hour. Next, primary antibody was incubated with HRP conjugated goat raised anti‐rabbit IgG for 1 hour. HRP development was assayed with TMB substrate solution (Bio‐Scientific, USA) and monitored at 370 nm using a SpectraMax M3 microplate reader (Molecular Devices, USA) every 5 minutes for 30 minutes.
A general note: An ELISA detects its analyte on a solid surface through an enzyme-linked reagent.

Read-outs that look alike come from different tables or passages of the source. Where no end group is shown, it is not given here.

T1 sequence (K7NTP5 entry or part of it): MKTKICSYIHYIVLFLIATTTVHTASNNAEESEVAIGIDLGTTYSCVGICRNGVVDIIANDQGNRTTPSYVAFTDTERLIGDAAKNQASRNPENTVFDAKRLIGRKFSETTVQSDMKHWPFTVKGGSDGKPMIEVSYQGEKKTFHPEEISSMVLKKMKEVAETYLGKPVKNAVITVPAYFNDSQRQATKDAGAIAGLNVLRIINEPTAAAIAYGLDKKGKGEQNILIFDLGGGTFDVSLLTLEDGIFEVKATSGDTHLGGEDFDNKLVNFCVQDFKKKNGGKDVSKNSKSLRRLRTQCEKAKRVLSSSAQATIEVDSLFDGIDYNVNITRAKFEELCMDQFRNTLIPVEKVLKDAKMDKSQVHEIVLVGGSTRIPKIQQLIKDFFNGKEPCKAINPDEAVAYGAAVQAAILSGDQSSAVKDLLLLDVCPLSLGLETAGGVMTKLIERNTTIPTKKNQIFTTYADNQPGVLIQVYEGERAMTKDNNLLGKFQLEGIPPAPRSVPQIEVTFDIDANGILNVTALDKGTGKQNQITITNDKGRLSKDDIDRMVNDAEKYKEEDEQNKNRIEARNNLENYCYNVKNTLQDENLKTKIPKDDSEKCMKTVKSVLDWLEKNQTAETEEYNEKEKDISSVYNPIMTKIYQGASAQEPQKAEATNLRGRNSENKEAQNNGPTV

In the case of NRLLTG [NRLLTG, reference compound], the “ka association rate constant” value on PfHsp70‐xT [1] (+ ADP) was 6.0 (± 0.51) 1/ Ms; at PfHsp70‐xT [1] (no nucleotide), 3.15 (± 0.31) 1/ Ms; on PfHsp70‐x [2] (+ ADP), 1.62 (± 0. 22) 1/ Ms; at PfHsp70‐x [2] (+ ATP) it was 1.21 (± 0.23) 1/ Ms. Also, the koff was 1e-05 s⁻¹ on PfHsp70‐xT [1] (+ ADP); 0.000161 s⁻¹ at PfHsp70‐xT [1] (+ ATP); 8.67e-06 s⁻¹ on PfHsp70‐xT [1] (no nucleotide); 1.01e-05 s⁻¹ at PfHsp70‐x [2] (+ ADP); 1.01e-05 s⁻¹ on PfHsp70‐x [2] (+ ATP); 9.97e-06 s⁻¹ at PfHsp70‐x [2] (no nucleotide).
The molecule ANNNMYRR [ANNNMYRR] came in with a Kd on PfHsp70‐x [2] (no nucleotide (NN)) of 2.21 nM.
Regarding “GFTVVLMYRF [GFTVVLMYRF, reference compound]”, the koff worked out at 1e-05 s⁻¹ on PfHsp70‐x [2] (+ ADP), 0.000117 s⁻¹ on PfHsp70‐x [2] (+ ATP) and 1.03e-05 s⁻¹ at PfHsp70‐x [2] (no nucleotide).
As for NRNNTG [NRNNTG], the Kd at PfHsp70‐xT [1] (2 mM ADP) worked out at 1.69 nM; at PfHsp70‐xT [1] (no nucleotide (NN)), 7.92 nM; at PfHsp70‐x [2] (2 mM ADP), 4.31 nM; at PfHsp70‐x [2] (no nucleotide (NN)), 6.91 nM. For the same molecule, the “ka association rate constant” value on PfHsp70‐xT [1] (+ ADP) is reported as 5.96 (±0.1) 1/ Ms; on PfHsp70‐xT [1] (+ ATP), 9.37 (±0.17) 1/ Ms; on PfHsp70‐xT [1] (no nucleotide), 3.52 (± 0.18) 1/ Ms; at PfHsp70‐x [2] (+ ADP), 2.55 (± 0.23) 1/ Ms; on PfHsp70‐x [2] (+ ATP) it was 7.33 (± 0.22) 1/ Ms; on PfHsp70‐x [2] (no nucleotide), 2.43 (± 0.45) 1/ Ms. Moreover, the koff at PfHsp70‐xT [1] (+ ADP) came out at 1.01e-08 s⁻¹; at PfHsp70‐xT [1] (+ ATP), 1.01e-05 s⁻¹; on PfHsp70‐xT [1] (no nucleotide) it was 2.79e-08 s⁻¹; on PfHsp70‐x [2] (+ ADP), 1.03e-07 s⁻¹; on PfHsp70‐x [2] (+ ATP) it was 1.01e-06 s⁻¹; at PfHsp70‐x [2] (no nucleotide), 9.49e-07 s⁻¹.
For GFTNNNMYRF [GFTNNNMYRF], the Kd at PfHsp70‐xT [1] (2 mM ADP) is 1.4 nM; at PfHsp70‐xT [1] (no nucleotide (NN)), 2.2 nM; at PfHsp70‐x [2] (2 mM ADP), 6.25 nM; at PfHsp70‐x [2] (no nucleotide (NN)) it was 2.4 nM.
With `Nc1ncnc2c1ncn2[C@@H]1O[C@H](COP(=O)(O)OP(=O)(O)OP(=O)(O)O)[C@@H](O)[C@H]1O` [ATP], the Kd on PfHsp70‐x [3] stood at 110 nM; at PfHsp70‐xT [4] it was 11200 nM.
In the case of “hHop: recombinant N-terminally His-tagged human Hsp70‐Hsp90 organizing protein”, the “association with hHop in slot blot” value was “occur in a concentration‐dependent manner” in the assay with PfHsp70‐x [5] (hHop immobilized 2, 4, 8 μg, overlaid with PfHsp70‐x 10 μg/mL, no nucleotide); “appeared to enhance the association” with PfHsp70‐x [5] (overlaid with PfHsp70‐x, 5 mM ADP); “abrogated the interaction” with PfHsp70‐x [5] (overlaid with PfHsp70‐x, 5 mM ATP); “not observed” with PfHsp70‐xT [6]. The “inhibition of the PfHsp70‐x-hHop association by ATP” value in the assay with PfHsp70‐x [7] is reported as “at least tenfold”. The “association with hHop in ELISA” value with PfHsp70‐x [8] (PfHsp70‐x immobilized 5 μg/mL, 2 h, 25°C, no nucleotide) was “occurs in a concentration dependent form”; with PfHsp70‐x [8] (PfHsp70‐x immobilized, 5 mM ADP), “occurs in a concentration dependent form”; with PfHsp70‐x [8] (PfHsp70‐x immobilized, 5 mM ATP), “inhibited the association”.

The values are drawn from publication PMC6282620, “Structural and biochemical characterization of Plasmodium falciparum Hsp70‐x reveals functional versatility of its C‐terminal EEVN motif” (Proteins, 2018).
